Experiments:
[1] = tested on: Clostridium tyrobutyricum (ATCC 25755); experiment: Growth of Clostridium tyrobutyricum in batch culture (absorbance at 600 nm); type: cell-based; details: 1 g/L phenolic compound in medium, vs control with no phenolic compound; FIG. 3
Protocol: (§1) In order to investigate the effect of phenolic compounds on the growth of microorganisms and production of butanol or butyric acid by the microorganisms, microorganisms were cultured in a medium containing phenolic compounds and the cell weight of the microorganisms and the concentration of produced butanol and butyric acid was measured.
(§2) A butyric acid fermentation medium included 20 g of glucose, 5 g of yeast extract, 0.2 g of magnesium sulfate, 0.01 g of manganese sulfate, 0.01 g of iron sulfate, 0.01 g of sodium chloride, 0.5 g of monopotassium phosphate (KH2PO4), 0.5 g of dipotassium phosphate (K2HPO4) and 2 g of ammonium acetate per liter. And, a butanol fermentation medium included 20 g of glucose, 5 g of yeast extract, 0.2 g of magnesium sulfate, 0.01 g of manganese sulfate, 0.01 g of iron sulfate, 0.01 g of sodium chloride, 0.5 g of monopotassium phosphate (KH2PO4), 0.5 g of dipotassium phosphate (K2HPO4) and 2 g of ammonium acetate per liter. Each medium was flushed with argon gas and sterilized at 121° C. for 15 minutes before measurement. Initial pH was adjusted to 6.8 with 1 N potassium hydroxide (KOH).
p-Coumaric acid, ferulic acid, syringaldehyde and vanillic acid, 1 g/L each, were added to the medium as phenolic compounds. A medium with no phenolic compound added was used as control.
Butyric acid fermentation was conducted using Clostridium tyrobutyricum (American Type Culture Collection, ATCC 25755) after culturing for two passages. Butanol fermentation was conducted using Clostridium acetobutylicum (ATCC 824) and Clostridium beijerinckii (National Collection of Industrial, Marine and Food Bacteria, NCIMB 8052) after culturing for two passages.
Butyric acid and butanol fermentation was carried out by adding the culture fluid to a batch fermenter. Batch culture was performed by adding 20 mL of the medium to a 60-mL serum bottle, adding the culture fluid with an amount of 5% based on the medium and then incubating in a shaking incubator at 37° C. and 150 rpm.
The growth of the microorganisms was evaluated by measuring absorbance at 600 nm using a spectrophotometer (UVmini-1240, Shimadzu).
As the surfactant, Tween 80 (BioXtra, Sigma, viscous liquid) was used. The phenolic compound and Tween 80 were added at an amount of 1 g/L to the medium of Example 1. A medium with no phenolic compound or Tween 80 added was used as control.
The growth of Clostridium tyrobutyricum (ATCC 25755) and production of butyric acid thereby in the medium containing the phenolic compounds, 1 g/L each, and 1 g/L of Tween 80 were measured.
Other experimental conditions were the same as in Example 1.
1 g/L of lignin (alkali, Sigma Aldrich 471003) was added to the medium of Example 1 instead of the phenolic compounds. […]

[2] = tested on: Clostridium tyrobutyricum (ATCC 25755); experiment: Production of butyric acid by Clostridium tyrobutyricum (gas chromatography); type: cell-based; details: 1 g/L phenolic compound plus 1 g/L Tween 80; FIG. 4
Protocol: as §1
as §2, with “Each medium was flushed with argon gas and sterilized at 121° C. for 15 minutes before measurement. Initial pH was adjusted to 6.8 with 1 N potassium hydroxide (KOH).” left out
The concentration of butyric acid and butanol was analyzed using a gas chromatography system (Agilent Technologies 6890N Network GC system) equipped with a flame ionization detector. […]
The growth of Clostridium tyrobutyricum (ATCC 25755) and production of butyric acid thereby in the medium containing the phenolic compounds, 1 g/L each, and 1 g/L of Tween 80 were measured. […]

Structure (SMILES) | inhibiting the growth of the microorganism [1] [%] | detoxifying effect of added surfactant on butyric acid production [2]
COc1cc(/C=C/C(=O)O)ccc1O [ferulic acid] | 74 | higher detoxifying effect
O=C(O)/C=C/c1ccc(O)cc1 [p-coumaric acid, p-Coumaric acid] | 99 | higher detoxifying effect
COc1cc(C=O)cc(OC)c1O [syringaldehyde] | 30 | –
COc1cc(C(=O)O)ccc1O [vanillic acid] | 48 | –
